Assay results published in the Kinase Knowledgebase extract (Sharma et al. 2016).

Tests used:
[1] = biological target: EGFR (human) (UniProt P00533); conditions: a431
[2] = biological target: EGFR (human), P00533 [WT]
[3] = biological target: EGFR (human), P00533 [T790M]
Chain of EGFR (human), P00533 [T790M] (P00533 whole entry T790M, looked up): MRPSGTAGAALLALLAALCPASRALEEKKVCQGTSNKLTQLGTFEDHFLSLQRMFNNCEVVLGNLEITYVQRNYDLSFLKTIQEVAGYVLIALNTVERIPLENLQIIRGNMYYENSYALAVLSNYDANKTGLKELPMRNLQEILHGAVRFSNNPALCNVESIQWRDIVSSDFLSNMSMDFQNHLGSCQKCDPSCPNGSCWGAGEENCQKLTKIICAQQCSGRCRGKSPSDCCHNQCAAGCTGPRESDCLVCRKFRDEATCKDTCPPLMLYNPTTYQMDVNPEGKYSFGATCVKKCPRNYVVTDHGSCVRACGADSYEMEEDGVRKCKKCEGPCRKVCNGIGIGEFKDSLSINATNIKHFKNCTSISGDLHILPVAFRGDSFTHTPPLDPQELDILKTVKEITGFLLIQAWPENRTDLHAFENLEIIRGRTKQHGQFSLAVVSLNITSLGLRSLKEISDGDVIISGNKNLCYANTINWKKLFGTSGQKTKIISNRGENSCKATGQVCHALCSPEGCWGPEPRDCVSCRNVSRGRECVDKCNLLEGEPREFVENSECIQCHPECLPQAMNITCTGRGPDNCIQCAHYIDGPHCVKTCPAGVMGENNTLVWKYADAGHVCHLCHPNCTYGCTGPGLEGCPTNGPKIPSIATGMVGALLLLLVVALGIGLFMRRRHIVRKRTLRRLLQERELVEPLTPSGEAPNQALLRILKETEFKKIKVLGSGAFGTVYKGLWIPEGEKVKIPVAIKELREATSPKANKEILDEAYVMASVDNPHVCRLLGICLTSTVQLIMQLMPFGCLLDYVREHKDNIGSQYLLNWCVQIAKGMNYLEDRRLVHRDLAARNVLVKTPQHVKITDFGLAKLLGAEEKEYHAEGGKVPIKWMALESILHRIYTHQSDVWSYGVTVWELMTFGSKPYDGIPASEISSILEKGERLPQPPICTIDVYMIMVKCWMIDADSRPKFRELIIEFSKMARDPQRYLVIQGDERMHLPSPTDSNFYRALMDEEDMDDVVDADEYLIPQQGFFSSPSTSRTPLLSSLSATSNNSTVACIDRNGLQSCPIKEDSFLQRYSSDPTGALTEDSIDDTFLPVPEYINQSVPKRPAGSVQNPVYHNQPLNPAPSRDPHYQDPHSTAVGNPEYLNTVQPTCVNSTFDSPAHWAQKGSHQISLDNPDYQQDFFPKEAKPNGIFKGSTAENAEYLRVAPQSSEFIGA

Chain of EGFR (human) (P00533 whole entry, looked up): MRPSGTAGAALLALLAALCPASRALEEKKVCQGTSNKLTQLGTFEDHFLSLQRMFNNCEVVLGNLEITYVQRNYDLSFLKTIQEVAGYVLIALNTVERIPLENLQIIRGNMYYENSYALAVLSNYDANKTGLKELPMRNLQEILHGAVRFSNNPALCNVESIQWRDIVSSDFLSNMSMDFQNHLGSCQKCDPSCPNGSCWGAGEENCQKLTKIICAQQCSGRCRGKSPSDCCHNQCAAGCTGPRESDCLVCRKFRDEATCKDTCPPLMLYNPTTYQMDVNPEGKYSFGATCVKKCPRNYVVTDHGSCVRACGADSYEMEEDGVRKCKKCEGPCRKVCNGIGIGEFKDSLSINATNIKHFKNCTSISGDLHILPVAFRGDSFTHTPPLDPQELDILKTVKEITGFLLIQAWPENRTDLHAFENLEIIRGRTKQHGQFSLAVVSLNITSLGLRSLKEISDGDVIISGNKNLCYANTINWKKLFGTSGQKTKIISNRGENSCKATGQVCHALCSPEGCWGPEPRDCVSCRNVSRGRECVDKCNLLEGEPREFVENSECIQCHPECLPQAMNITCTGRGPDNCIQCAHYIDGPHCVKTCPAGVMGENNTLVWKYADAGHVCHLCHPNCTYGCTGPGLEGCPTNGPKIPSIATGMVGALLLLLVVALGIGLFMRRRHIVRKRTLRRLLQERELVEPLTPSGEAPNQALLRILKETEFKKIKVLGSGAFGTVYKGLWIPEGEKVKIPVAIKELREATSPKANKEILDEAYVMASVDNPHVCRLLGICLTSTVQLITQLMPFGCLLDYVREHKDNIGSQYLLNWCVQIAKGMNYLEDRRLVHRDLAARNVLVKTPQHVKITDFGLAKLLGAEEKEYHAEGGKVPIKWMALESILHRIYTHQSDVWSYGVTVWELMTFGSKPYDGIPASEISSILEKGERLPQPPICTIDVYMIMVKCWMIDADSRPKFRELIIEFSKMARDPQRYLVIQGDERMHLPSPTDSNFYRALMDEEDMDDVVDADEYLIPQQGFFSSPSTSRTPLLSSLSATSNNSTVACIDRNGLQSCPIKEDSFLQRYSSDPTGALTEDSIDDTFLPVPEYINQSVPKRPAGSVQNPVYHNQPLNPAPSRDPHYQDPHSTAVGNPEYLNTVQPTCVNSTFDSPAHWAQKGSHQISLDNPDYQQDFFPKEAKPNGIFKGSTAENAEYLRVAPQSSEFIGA
Chain of EGFR (human), P00533 [WT] (P00533 whole entry, looked up): as above

| Compound | IC50 [1] | IC50 [2] | IC50 [3] |
| --- | --- | --- | --- |
| O=C(/C=C\CO)NCc1cc(-c2cncnc2Nc2ccc(OCc3ccccn3)c(Cl)c2)on1 | 0.618 µM | – | – |
| C=C(CN1CCN(C)CC1)C(=O)NCc1cc(-c2cncnc2Nc2ccc(OCc3ccccn3)c(Cl)c2)on1 | 0.309 µM | – | – |
| C=CC(=O)NCc1coc(-c2c(N)ncnc2Nc2ccc(OCc3ccccn3)c(F)c2)n1 | – | 0.0049 µM | 0.129 µM |
| Cc1ccc(Oc2ccc(Nc3ncnc(N)c3-c3nc(CNC(=O)/C=C/CN(C)C)co3)cc2C)cn1 | 0.326 µM | – | – |
| C=CC(=O)NCc1coc(-c2c(N)ncnc2Nc2ccc(Oc3cc(Cl)ccc3Cl)c(Cl)c2)n1 | – | 0.0039 µM | 0.0032 µM |
| C=CC(=O)NCc1coc(-c2c(N)ncnc2Nc2ccc(Oc3ccc(C)nc3)c(C)c2)n1 | – | – | 0.106 µM |
| Nc1ncnc(Nc2ccc(OCc3ccccn3)c(Cl)c2)c1-c1nc(CNC(=O)CCO)co1 | 0.137 µM | – | – |
| C=CC(=O)NCc1cc(-c2cncnc2Nc2ccc(OCc3cccc(F)c3)c(Cl)c2)on1 | 0.079 µM | 0.0103 µM | 0.0408 µM |
| C=CC(=O)NCc1coc(-c2c(N)ncnc2Nc2ccc(Oc3cccnc3)c(Cl)c2)n1 | – | – | 0.0221 µM |
| C=CC(=O)NCc1coc(-c2c(N)ncnc2Nc2ccc(F)c(Cl)c2)n1 | – | – | 0.0501 µM |
| C=C(CN(C)C)C(=O)NCc1coc(-c2c(N)ncnc2Nc2ccc(OCc3ccccn3)c(Cl)c2)n1 | 0.19 µM | 0.0032 µM | 0.0025 µM |
| C=CC(=O)NCc1coc(-c2c(N)ncnc2Nc2ccc(Oc3ccccc3)c(Cl)c2)n1 | – | 0.007 µM | 0.0033 µM |
| CN(C)C/C=C/C(=O)NCc1cc(-c2cncnc2Nc2ccc(OCc3cccc(F)c3)c(Cl)c2)on1 | 0.111 µM | – | – |
| C=C(CN(CC)CC)C(=O)NCc1cc(-c2cncnc2Nc2ccc(OCc3ccccn3)c(Cl)c2)on1 | 0.391 µM | – | – |
| C=CC(=O)N1CCC(c2cc(-c3cncnc3Nc3ccc(OCc4cccc(F)c4)c(Cl)c3)on2)CC1 | 3.08 µM | – | – |
| C=CC(=O)NCc1coc(-c2c(NC(C)=O)ncnc2Nc2ccc(OCc3ccccn3)c(Cl)c2)n1 | 0.0142 µM | – | – |
| C=CC(=O)NCc1coc(-c2cncnc2Nc2ccc(OCc3ccccn3)c(Cl)c2)n1 | – | 0.0039 µM | 0.0136 µM |
| C=C(CN1CCCC1)C(=O)NCc1cc(-c2cncnc2Nc2ccc(OCc3ccccn3)c(Cl)c2)on1 | 0.266 µM | – | – |
| CN(C)C/C=C/C(=O)NCc1coc(-c2c(N)ncnc2Nc2ccc(F)c(Cl)c2)n1 | 0.088 µM | – | – |
| C=CC(=O)NCc1coc(-c2c(N)ncnc2Nc2ccc(OCc3ccccn3)cc2F)n1 | – | 0.0085 µM | 0.171 µM |
| Nc1ncnc(Nc2ccc(Oc3ccccc3F)c(Cl)c2)c1-c1nc(CNC(=O)CO)co1 | 0.159 µM | – | – |
| Nc1ncnc(Nc2ccc(Oc3ccccc3F)c(Cl)c2)c1-c1nc(CNC(=O)CCO)co1 | 0.826 µM | – | – |
| C=C(CS(C)(=O)=O)C(=O)NCc1cc(-c2cncnc2Nc2ccc(OCc3ccccn3)c(Cl)c2)on1 | 0.289 µM | – | – |
| C=CC(=O)N(C)Cc1cc(-c2cncnc2Nc2ccc(OCc3cccc(F)c3)c(Cl)c2)on1 | 0.0687 µM | – | – |
| C=CC(=O)NCC1COC(c2c(N)ncnc2Nc2ccc(OCc3ccccn3)c(Cl)c2)=N1 (centres undefined) | 0.13 µM | – | – |
| C=CC(=O)NCCc1cc(-c2cncnc2Nc2ccc(OCc3cccc(F)c3)c(Cl)c2)on1 | 0.504 µM | – | – |
| C=CC(=O)NCc1cc(-c2cncnc2Nc2ccc(OCc3ccccn3)c(Cl)c2)on1 | 0.002 µM | 0.0091 µM | 0.101 µM |
| C=CC(=O)N1CCCC1c1cc(-c2cncnc2Nc2ccc(OCc3cccc(F)c3)c(Cl)c2)on1 (centres undefined) | 0.131 µM | – | – |
| C=C(CN(C)C)C(=O)NCc1coc(-c2cncnc2Nc2ccc(OCc3ccccn3)c(Cl)c2)n1 | 0.313 µM | 0.0035 µM | 0.0034 µM |

More lines, now with the values ahead:

| IC50 [1] | IC50 [2] | IC50 [3] | Compound |
| --- | --- | --- | --- |
| 0.437 µM | – | – | C=CC(=O)NCc1coc(-c2cncnc2Nc2ccc(F)c(Cl)c2)n1 |
| – | 0.0042 µM | 0.016 µM | C=CC(=O)NCc1coc(-c2c(N)ncnc2Nc2ccc(Oc3ccccn3)c(Cl)c2)n1 |
| 0.352 µM | – | – | C=C(CN(C)C)C(=O)NCc1coc(-c2c(N)ncnc2Nc2ccc(Oc3ccc(C)nc3)c(C)c2)n1 |
| 0.291 µM | – | – | COCCC(=O)NCc1coc(-c2c(N)ncnc2Nc2ccc(Oc3ccccc3F)c(Cl)c2)n1 |
| 0.0785 µM | – | – | CN(C)C/C=C/C(=O)NCc1coc(-c2c(N)ncnc2Nc2ccc(Oc3ccccc3)c(Cl)c2)n1 |
| 0.065 µM | – | – | C=CC(=O)NCc1cc(-c2cncnc2Nc2ccc(Br)c(Cl)c2F)on1 |
| – | 0.0277 µM | 0.019 µM | C=CC(=O)NCc1coc(-c2c(N)ncnc2Nc2ccc(OCc3cccc(F)c3)c(Cl)c2)n1 |
| 1.04 µM | – | – | C=CC(=O)N1CCCC(c2cc(-c3cncnc3Nc3ccc(OCc4cccc(F)c4)c(Cl)c3)on2)C1 (centres undefined) |
| 0.026 µM | – | 0.0069 µM | C=C(CN(C)C)C(=O)NCc1coc(-c2c(N)ncnc2Nc2ccc(F)c(Cl)c2)n1 |
| 0.001 µM | 0.0088 µM | 0.0123 µM | C=C(CN(C)C)C(=O)NCc1cc(-c2cncnc2Nc2ccc(OCc3ccccn3)c(Cl)c2)on1 |
| 0.423 µM | – | – | C=CC(=O)NCc1coc(-c2c(N)ncnc2Nc2ccc(Sc3nccn3C)c(Cl)c2)n1 |
| 0.0084 µM | 0.0084 µM | 0.125 µM | C=CC(=O)NCc1coc(-c2c(N)ncnc2Nc2ccc(Oc3ccnn3C)c(Cl)c2)n1 |
| 0.0986 µM | – | – | C=C(CN(C)C)C(=O)NCc1coc(-c2cncnc2Nc2ccc(F)c(Cl)c2)n1 |
| 0.182 µM | 0.0213 µM | – | C=C(CN1CCOCC1)C(=O)NCc1cc(-c2cncnc2Nc2ccc(OCc3ccccn3)c(Cl)c2)on1 |
| 0.0912 µM | – | – | C=CC(=O)NCc1coc(-c2c(N)ncnc2Nc2ccc(F)c(C)c2)n1 |
| 0.029 µM | 0.0061 µM | 0.161 µM | CN(C)C/C=C/C(=O)NCc1coc(-c2c(N)ncnc2Nc2ccc(OCc3ccccn3)c(Cl)c2)n1 |
| 0.119 µM | 0.0045 µM | 0.155 µM | CN(C)C/C=C/C(=O)NCc1coc(-c2cncnc2Nc2ccc(OCc3ccccn3)c(Cl)c2)n1 |
| 0.005 µM | – | – | CN(C)C/C=C/C(=O)NCc1cc(-c2cncnc2Nc2ccc(OCc3ccccn3)c(Cl)c2)on1 |
| – | 0.0454 µM | 0.414 µM | C=CC(=O)NCc1coc(-c2c(NC(C)=O)ncnc2Nc2ccc(Oc3cc(C(F)(F)F)nn3C)c(Cl)c2)n1 |
